The results in this text go back to patent publication US8221990B2, “Screening GPR12 receptor for substances having Nesfatin-1-like action, or which regulate Nesfatin-1 action” (Teijin Pharma Limited, priority 2007, dated 2012).

The nature of experiment [1]: Amount of food intake in a mouse after intraperitoneal administration. Format: in vivo. The settings on record: C57BL/6J male mouse, 0.25 nmol per gram of body weight, 0 to 3 hours. How it is done:
A 7-week-old C57BL/6J strain male mouse (CLEA Japan, Inc.) was used as an experimental animal. After purchasing the mouse, the mouse was raised at 22° C. in cycles of the 12-hour light period from 6 a.m. to 6 p.m. and the 12-hour dark period from 6 p.m. to 6 a.m. on the next morning with free access to pelleted feed (CLEA Japan, Inc., CE-2).
A 5 nmol aliquot of Nesfatin-1M30 (Mid-segment, SEQ ID NO: 11), M30_Ag-A (SEQ ID NO: 50), or M30_MSH-A (SEQ ID NO: 51) was dissolved in each 100 μL of saline, and each of the resultant solutions was administered intraperitoneally to a C57BL/6J mouse at a dose of 0.25 nmol per gram of body weight of the mouse. In the control group, only saline (Vehicle) was administered. Each mouse (5 mice in each group) was intraperitoneally given a single injection of a sample using a tuberculin syringe with 26 G needle, immediately before the dark period (6 p.m.).
Each mouse administered was placed in an individual cage, and the amount of food intake was determined by measuring the decreased amount of the pelleted feed during the period from 0 to 3 hours after the administration of a test substance. In the mouse administered with each test sample, the amount of food intake during 3 hours after the administration (g/3 h) is shown in FIG. 6.

Another experiment concerns the target T1, mouse GPR12 (Mus musculus, UniProt P35412).
T1 construct: expressed in transfected cells
T1 sequence (P35412 1-334): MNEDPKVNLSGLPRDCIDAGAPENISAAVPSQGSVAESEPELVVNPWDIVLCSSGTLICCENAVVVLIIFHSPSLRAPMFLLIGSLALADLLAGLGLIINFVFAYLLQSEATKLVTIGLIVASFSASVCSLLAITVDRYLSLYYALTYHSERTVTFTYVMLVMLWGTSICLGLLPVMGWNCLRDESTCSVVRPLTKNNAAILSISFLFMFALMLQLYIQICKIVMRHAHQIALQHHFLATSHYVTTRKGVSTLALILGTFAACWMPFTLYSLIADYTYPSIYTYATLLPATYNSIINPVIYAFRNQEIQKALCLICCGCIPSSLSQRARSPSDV
Description: cAMP production in CHO-K1-cell stable expression system (CHO-K1-GPR12). Format: cell-based. Particulars: CHO-K1-GPR12, peptide 10^-9 M, Forskolin 10^-5 M, 30 minutes. How it is done:
The preparation of cells stably expressing GPR12 was conducted by a conventional method, and hereinafter described briefly. A vector (pcDNA3.1-GPR12) in which a gene (cDNA) encoding mouse GPR12 (SEQ ID NO: 8) was inserted at the downstream of a CMV promoter of pcDNA3.1 (TM) (Invitrogen Corporation) was prepared, 10 μg of the vector was mixed with 250 μL of medium OPTI-MEM™ (Invitrogen Corporation), and 10 μg of Lipofectamine™ 2000 Reagent (Invitrogen Corporation) was mixed with 250 μL of medium OPTI-MEM™, 5 minutes later both mixtures were mixed, and the resultant mixture was left over at room temperature for 20 minutes to prepare a transfection reagent. Chinese hamster ovary cells (CHO-K1) [ATCC Cat. No. CCl-61] plated onto a 6-well plate at 1.5×10^6 cells/well on the previous day in advance were washed with medium OPTI-MEM™ once, and the above-mentioned transfection reagent (vector and Lipofectamine™ 2000 Reagent) was added to the cells dropwise to perform transfection. The resultant transfected cells were incubated at 37° C. for 5 hours in a CO2 incubator, and then the medium was replaced by Ham's F12 medium. Further, the next day the medium was exchanged with Ham's F12 medium containing 100 μg/mL of Geneticin® (Invitrogen Corporation), and furthermore the next day the medium was exchanged with the same medium containing 200 μg/mL of Geneticin®, and the following day the medium was exchanged with the same medium containing 700 μg/mL of Geneticin®, and after that, culturing was continued under the conditions of 37° C. and 5% CO2 in a medium containing Geneticin® at the same concentration. […]
The measured intracellular cAMP level was evaluated in terms of a ratio (Fold) of each intracellular cAMP level with respect to the mean of the intracellular cAMP level in the (−) group that is set as unity, in which CHO-K1-GPR12 cells were cultured in the medium containing no peptide.
In general terms: Changes in cAMP serve as a functional read-out for many G protein-coupled receptors.

Regarding “Nesfatin-1M30: mid-segment of Nesfatin-1, human-derived Nesfatin-1M30, SEQ ID NO: 11 (PDTGLYYDEYLKQVIDVLETDKHFREKLQK; listed as Homo sapiens)”, the “amount of food intake during 3 hours after the administration compared with control group (Vehicle)” value in experiment [1] is reported as “significant decrease of the food intake”. The “intracellular cAMP level compared with the group (-) cultured in medium containing no peptide” value with mouse GPR12 was “about 5 fold”.
